Data from patent US20090069370A1, “AZACYCLYLISOQUINOLINONE AND ISOINDOLINONE DERIVATIVES AS HISTAMINE-3 ANTAGONISTS” (Wyeth, priority 2007, published 2009).

biological target: T1, Human Histamine H3 Receptor (Homo sapiens, UniProt Q9Y5N1); experiment: Methyl histamine binding in human histamine H3 receptor cell line; details: membranes of stably transfected HEK293T cells; radioligand 1 nM; Ki from IC50 by Cheng-Prusoff
T1 construct: expressed in transfected cells; host or cells: HEK293T cells, stably transfected; membrane preparation
T1 sequence (Q9Y5N1 whole entry): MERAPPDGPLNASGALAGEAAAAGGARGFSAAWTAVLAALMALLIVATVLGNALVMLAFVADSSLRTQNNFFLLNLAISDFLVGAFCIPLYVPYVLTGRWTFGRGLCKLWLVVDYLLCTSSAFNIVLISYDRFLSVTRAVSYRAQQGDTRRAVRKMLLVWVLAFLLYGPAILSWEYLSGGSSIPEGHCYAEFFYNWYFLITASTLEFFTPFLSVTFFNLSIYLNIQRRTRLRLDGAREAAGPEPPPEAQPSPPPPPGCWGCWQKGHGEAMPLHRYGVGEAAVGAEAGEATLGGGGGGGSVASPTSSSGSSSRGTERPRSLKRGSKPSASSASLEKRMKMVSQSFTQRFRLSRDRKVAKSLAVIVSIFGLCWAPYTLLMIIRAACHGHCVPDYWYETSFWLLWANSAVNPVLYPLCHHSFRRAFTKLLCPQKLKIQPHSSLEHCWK
Description: Evaluation of Methyl Histamine Binding in Human Histamine H3 Receptor Cell Line
The affinity of test compounds for the histamine 3 (H3) receptor is evaluated in the following manner. Stably transfected HEK293T cells are grown in DMEM containing 10% heat inactivated FBS and G-418 (500 ug/ml). Cells are scraped from the plate, transferred to centrifuge tubes, washed one time in PBS by centrifugation in a Sorvall RT7 Plus centrifuge (2000 rpm 10 minutes, 4° C.). The resulting pellets are stored at −80° C. until ready for use. Cells are re-suspended in buffer (50 mM Tris pH=7.5) and placed in a Dounce homogenizer, douncing ten times to homogenize cells. The homogenate is spun down by centrifugation (Sorvall RT7 Plus, 1800 rpm 10 minutes, 4° C.). The supernatant is placed in a Corex tube and spun down by centrifugation (Sorvall RC 5c Plus, 17,000 rpm 20 minutes, 4° C.). The pellet is resuspended in buffer (50 mM Tris, pH 7.5). Protein concentration (ug/ul) is determined using the Micro-BCA Protein Determination. The binding assay is set up in a 96 well microtiter plate in a total volume of 250 uL. Non-specific binding is determined in the presence of 10 uM clobenpropit. The final radioligand concentration is 1 nM. The test compound is serially diluted using the Beckman Biomek2000 to a final approximate range of 100 uM to 100 pM. Membranes are suspended in buffer, homogenized in 2 bursts of ten seconds using a Vitris mechanical homogenizer set at power setting 5. Ten μg of membranes are added to each well. Following a one hour incubation at 30° C., the reaction is terminated by the addition of ice cold buffer and rapid filtration with a Packard Filtermate Harvester through a GF/B filter pre-soaked with 1% PEI for one hour. The plate is dried for one hour at 37° C. and 60 μL Microscint Scintillant is added to each well. The CPM per well is measured on a Packard Top Count NXT. Ki values are determined in nM. The Ki is calculated from the IC50 (i.e. the concentration of competing ligand which displaces 50% of the specific binding of the radioligand). CPM values are expressed as % specific binding and plotted vs compound concentration. A curve is fitted using a four-parameter logistic fit and the IC50 value is determined. The Ki is calculated from this using the Cheng-Prusoff equation: […]=IC50/1+(L/Kd) where L=concentration of free radioligand used in the assay, and Kd is the dissociation constant of the radioligand for the receptor. L is determined for each experiment by counting an aliquot of the diluted radioligand (corresponding to that added to each well) and the Kd has previously been determined under identical conditions for this cell line/radioligand.

Ki [µM] | Structure (SMILES)
0.0251 to 0.05 | N#Cc1ccc(-c2ccc3c(c2)CN(C2CCN(C4CCCCC4)CC2)C3=O)cc1 [Example 30, 4-[2-(1-Cyclohexylpiperidin-4-yl)-1-oxo-2,3-dihydro-1H-isoindol-5-yl]benzonitrile]
> 0.1 | O=C(O)c1ccc(Oc2ccc3c(c2)CCN([C@@H]2CCN(C4CCC4)C2)C3=O)cc1 [Example 32, (R)-4-(2-(1-cyclobutylpyrrolidin-3-yl)-1-oxo-1,2,3,4-tetrahydroiso-quinolin-6-yloxy)benzoic acid]
≤ 0.01 | CNC(=O)c1ccc(Oc2ccc3c(c2)CCN([C@@H]2CCN(C4CCC4)C2)C3=O)cc1 [Example 33, 4-({2-[(3R)-1-cyclobutylpyrrolidin-3-yl]-1-oxo-1,2,3,4-tetrahydroisoquinolin-6-yl}oxy)-N-methylbenzamide]
≤ 0.01 | CCNC(=O)c1ccc(Oc2ccc3c(c2)CCN([C@@H]2CCN(C4CCC4)C2)C3=O)cc1 [Example 34, 4-({2-[(3R)-1-cyclobutylpyrrolidin-3-yl]-1-oxo-1,2,3,4-tetrahydroisoquinolin-6-yl}oxy)-N-ethylbenzamide]
0.0101 to 0.025 | O=C(c1ccc(Oc2ccc3c(c2)CCN([C@@H]2CCN(C4CCC4)C2)C3=O)cc1)N1CCCC1 [Example 35, 2-[(3R)-1-cyclobutylpyrrolidin-3-yl]-6-[4-(pyrrolidin-1-ylcarbonyl)phenoxy]-3,4-dihydroisoquinolin-1(2H)-one]
≤ 0.01 | CNC(=O)c1ccc(Oc2ccc3c(c2)CCN([C@@H]2CCN(C4CCCC4)C2)C3=O)cc1 [Example 37, 4-({2-[(3R)-1-cyclopentylpyrrolidin-3-yl]-1-oxo-1,2,3,4-tetrahydroisoquinolin-6-yl}oxy)-N-methylbenzamide]
0.0101 to 0.025 | CCNC(=O)c1ccc(Oc2ccc3c(c2)CCN([C@@H]2CCN(C4CCCC4)C2)C3=O)cc1 [Example 38, 4-({2-[(3R)-1-cyclopentylpyrrolidin-3-yl]-1-oxo-1,2,3,4-tetrahydroisoquinolin-6-yl}oxy)-N-ethylbenzamide]
≤ 0.01 | O=C(c1ccc(Oc2ccc3c(c2)CCN([C@@H]2CCN(C4CCCC4)C2)C3=O)cc1)N1CCCC1 [Example 39, 2-[(3R)-1-cyclopentylpyrrolidin-3-yl]-6-[4-(pyrrolidin-1-ylcarbonyl)phenoxy]-3,4-dihydroisoquinolin-1(2H)-one]
≤ 0.01 | CNC(=O)c1ccc(-c2ccc3c(c2)CCN([C@@H]2CCN(C4CCCC4)C2)C3=O)cc1 [Example 41, 4-{2-[(3R)-1-cyclopentylpyrrolidin-3-yl]-1-oxo-1,2,3,4-tetrahydroisoquinolin-6-yl}-N-methylbenzamide]
≤ 0.01 | CCNC(=O)c1ccc(-c2ccc3c(c2)CCN([C@@H]2CCN(C4CCCC4)C2)C3=O)cc1 [Example 42, 4-{2-[(3R)-1-cyclopentylpyrrolidin-3-yl]-1-oxo-1,2,3,4-tetrahydroisoquinolin-6-yl}-N-ethylbenzamide]
≤ 0.01 | O=C(c1ccc(-c2ccc3c(c2)CCN([C@@H]2CCN(C4CCCC4)C2)C3=O)cc1)N1CCCC1 [Example 43, 2-[(3R)-1-cyclopentylpyrrolidin-3-yl]-6-[4-(pyrrolidin-1-ylcarbonyl)phenyl]-3,4-dihydroisoquinolin-1(2H)-one]
≤ 0.01 | CNC(=O)c1ccc(-c2ccc3c(c2)CCN([C@@H]2CCN(C4CCC4)C2)C3=O)cc1 [Example 44, 4-{2-[(3R)-1-cyclobutylpyrrolidin-3-yl]-1-oxo-1,2,3,4-tetrahydroisoquinolin-6-yl}-N-methylbenzamide]
≤ 0.01 | CCNC(=O)c1ccc(-c2ccc3c(c2)CCN([C@@H]2CCN(C4CCC4)C2)C3=O)cc1 [Example 45, 4-{2-[(3R)-1-cyclobutylpyrrolidin-3-yl]-1-oxo-1,2,3,4-tetrahydroisoquinolin-6-yl}-N-ethylbenzamide]
≤ 0.01 | CN(C)C(=O)c1ccc(-c2ccc3c(c2)CCN([C@@H]2CCN(C4CCC4)C2)C3=O)cc1 [Example 46, 4-{2-[(3R)-1-cyclobutylpyrrolidin-3-yl]-1-oxo-1,2,3,4-tetrahydroisoquinolin-6-yl}-N,N-dimethylbenzamide]
≤ 0.01 | O=C(c1ccc(-c2ccc3c(c2)CCN([C@@H]2CCN(C4CCC4)C2)C3=O)cc1)N1CCCC1 [Example 47, 2-[(3R)-1-cyclobutylpyrrolidin-3-yl]-6-[4-(pyrrolidin-1-ylcarbonyl)phenyl]-3,4-dihydroisoquinolin-1(2H)-one]
≤ 0.01 | O=C(c1ccc(-c2ccc3c(c2)CCN([C@@H]2CCN(C4CCC4)C2)C3=O)cc1F)N1CCCC1 [Example 48, 2-[(3R)-1-cyclobutylpyrrolidin-3-yl]-6-[3-fluoro-4-(pyrrolidin-1-ylcarbonyl)phenyl]-3,4-dihydroisoquinolin-1(2H)-one]
≤ 0.01 | O=C(c1ccc(-c2ccc3c(c2)CCN([C@@H]2CCN(C4CCC4)C2)C3=O)cc1Cl)N1CCCC1 [Example 49, 6-[3-chloro-4-(pyrrolidin-1-ylcarbonyl)phenyl]-2-[(3R)-1-cyclobutylpyrrolidin-3-yl]-3,4-dihydroisoquinolin-1(2H)-one]
0.0501 to 0.1 | CN1CC[C@@H](N2CCc3cc(-c4ccc(C(=O)N5CCCC5)cc4)ccc3C2=O)C1 [Example 55, 2-[(3R)-1-methylpyrrolidin-3-yl]-6-[4-(pyrrolidin-1-ylcarbonyl)phenyl]-3,4-dihydroisoquinolin-1(2H)-one]
≤ 0.01 | CC(C)N1CC[C@@H](N2CCc3cc(-c4ccc(C(=O)N5CCCC5)cc4)ccc3C2=O)C1 [Example 56, 2-[(3R)-1-(1-methylethyl)pyrrolidin-3-yl]-6-[4-(pyrrolidin-1-ylcarbonyl)phenyl]-3,4-dihydroisoquinolin-1(2H)-one]
≤ 0.01 | O=C(c1ccc(-c2ccc3c(c2)CCN([C@@H]2CCN(C4CCCCC4)C2)C3=O)cc1)N1CCCC1 [Example 57, 2-[(3R)-1-cyclohexylpyrrolidin-3-yl]-6-[4-(pyrrolidin-1-ylcarbonyl)phenyl]-3,4-dihydroisoquinolin-1(2H)-one]
≤ 0.01 | O=C(c1ccc(-c2ccc3c(c2)CCN([C@@H]2CCN(CC4CC4)C2)C3=O)cc1)N1CCCC1 [Example 58, 2-[(3R)-1-(cyclopropylmethyl)pyrrolidin-3-yl]-6-[4-(pyrrolidin-1-ylcarbonyl)phenyl]-3,4-dihydroisoquinolin-1(2H)-one]
0.0101 to 0.025 | O=C(c1ccc(-c2ccc3c(c2)CCN([C@@H]2CCN(CC4CCCC4)C2)C3=O)cc1)N1CCCC1 [Example 59, 2-[(3R)-1-(cyclopentylmethyl)pyrrolidin-3-yl]-6-[4-(pyrrolidin-1-ylcarbonyl)phenyl]-3,4-dihydroisoquinolin-1(2H)-one]
≤ 0.01 | O=C(c1ccc(-c2ccc3c(c2)CCN([C@@H]2CCN(Cc4ccoc4)C2)C3=O)cc1)N1CCCC1 [Example 60, 2-[(3R)-1-(furan-3-ylmethyl)pyrrolidin-3-yl]-6-[4-(pyrrolidin-1-ylcarbonyl)phenyl]-3,4-dihydroisoquinolin-1(2H)-one]
> 0.1 | O=C(c1ccc(-c2ccc3c(c2)CCN([C@@H]2CCN(Cc4ccco4)C2)C3=O)cc1)N1CCCC1 [Example 61, 2-[(3R)-1-(furan-2-ylmethyl)pyrrolidin-3-yl]-6-[4-(pyrrolidin-1-ylcarbonyl)phenyl]-3,4-dihydroisoquinolin-1(2H)-one]
0.0251 to 0.05 | O=C(c1ccc(-c2ccc3c(c2)CCN([C@@H]2CCN(Cc4cccs4)C2)C3=O)cc1)N1CCCC1 [Example 62, 6-[4-(pyrrolidin-1-ylcarbonyl)phenyl]-2-[(3R)-1-(thiophen-2-ylmethyl)pyrrolidin-3-yl]-3,4-dihydroisoquinolin-1(2H)-one]
≤ 0.01 | O=C(c1ccc(-c2ccc3c(c2)CCN(C2CCN(C4CCC4)CC2)C3=O)cc1)N1CCCC1 [Example 65, 2-(1-cyclobutylpiperidin-4-yl)-6-[4-(pyrrolidin-1-ylcarbonyl)phenyl]-3,4-dihydroisoquinolin-1(2H)-one]
≤ 0.01 | O=C(c1ccc(-c2ccc3c(c2)CCN(C2CCN(C4CCCC4)CC2)C3=O)cc1)N1CCCC1 [Example 66, 2-(1-cyclopentylpiperidin-4-yl)-6-[4-(pyrrolidin-1-ylcarbonyl)phenyl]-3,4-dihydroisoquinolin-1(2H)-one]
≤ 0.01 | CC(C)N1CCC(N2CCc3cc(-c4ccc(C(=O)N5CCCC5)cc4)ccc3C2=O)CC1 [Example 67, 2-(1-isopropylpiperidin-4-yl)-6-[4-(pyrrolidin-1-ylcarbonyl)phenyl]-3,4-dihydroisoquinolin-1(2H)-one]
